Measurements as given in PubChem BioAssay AID248 (DTP/NCI, 2004).
“And” between values parts separate entries of the source, which are not always exact repeats. Equal values may be shown once. Toxic doses and inconclusive results are not listed.

Test system: L1210 leukemia ip in BDF1 mice, survival T/C
Test: NCI In Vivo Anticancer Drug Screen. Data for tumor model L1210 Leukemia (intraperitoneal) in B6D2F1 (BDF1) mice
Conditions: higher = longer survival
Summary of the method: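 Tumor was transplanted into mice, which were then dosed with test compound or vehicle alone. Survival was recorded for each group, and the treated figure was expressed relative to the control figure.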

[1] = endpoint: mean survival time, dose: 100.0 mg/kg/injection, schedule: Q01DX001 (ip), vehicle: carboxymethylcellulose (CMC)
[2] = endpoint: mean survival time, dose: 200.0 mg/kg/injection, schedule: Q01DX001 (ip), vehicle: carboxymethylcellulose (CMC)
[3] = endpoint: mean survival time, dose: 100.0 mg/kg/injection, schedule: Q01DX009 (ip), vehicle: Klucel (hydroxypropylcellulose) (HPC)
[4] = endpoint: mean survival time, dose: 200.0 mg/kg/injection, schedule: Q01DX009 (ip), vehicle: Klucel (hydroxypropylcellulose) (HPC)
[5] = endpoint: mean survival time, dose: 400.0 mg/kg/injection, schedule: Q01DX009 (ip), vehicle: Klucel (hydroxypropylcellulose) (HPC)

SMILES: O=C1C=CN(C2OC(CO)C(O)C2O)C(=O)C1 (stereo not given)
- T/C (endpoint: mean survival time, dose: 0.75 mg/kg/injection, schedule: Q01DX009 (ip), vehicle: saline): 117 % of control
- T/C (endpoint: mean survival time, dose: 1.5 mg/kg/injection, schedule: Q01DX009 (ip), vehicle: saline): 117 % of control
- T/C (endpoint: mean survival time, dose: 4.8 mg/kg/injection, schedule: Q01DX009 (ip), vehicle: saline): 120 % of control
- T/C (endpoint: mean survival time, dose: 7.8 mg/kg/injection, schedule: Q01DX005 (ip), vehicle: other): 107 % of control
- T/C (endpoint: mean survival time, dose: 15.75 mg/kg/injection, schedule: Q01DX005 (ip), vehicle: other): 116 % of control
- T/C (endpoint: mean survival time, dose: 22.0 mg/kg/injection, schedule: Q01DX009 (ip), vehicle: saline): 124 % of control
- T/C (endpoint: mean survival time, dose: 31.25 mg/kg/injection, schedule: Q01DX005 (ip), vehicle: other): 123 % of control
- T/C (endpoint: mean survival time, dose: 62.5 mg/kg/injection, schedule: Q01DX005 (ip), vehicle: other): 124 % of control
- T/C (endpoint: mean survival time, dose: 100.0 mg/kg/injection, schedule: Q01DX001 (ip), vehicle: saline): 105 % of control
- T/C (endpoint: mean survival time, dose: 100.0 mg/kg/injection, schedule: Q04DX003 (ip), vehicle: saline): 108 % of control
- T/C (endpoint: mean survival time, dose: 112.0 mg/kg/injection, schedule: Q03HX024 (ip), vehicle: saline): 176 % of control
- T/C (endpoint: mean survival time, dose: 200.0 mg/kg/injection, schedule: Q01DX001 (ip), vehicle: saline): 114 % of control
- T/C (endpoint: mean survival time, dose: 200.0 mg/kg/injection, schedule: Q04DX003 (ip), vehicle: saline): 119 % of control
- T/C (endpoint: mean survival time, dose: 400.0 mg/kg/injection, schedule: Q01DX001 (ip), vehicle: saline): 105 % of control
- T/C (endpoint: mean survival time, dose: 400.0 mg/kg/injection, schedule: Q01DX009 (ip), vehicle: saline): 115 % of control
- T/C (endpoint: mean survival time, dose: 400.0 mg/kg/injection, schedule: Q04DX003 (ip), vehicle: saline): 116 % of control
- T/C (endpoint: median survival time, dose: 6.25 mg/kg/injection, schedule: Q01DX009 (ip), vehicle: saline): 122 % of control
- T/C (endpoint: median survival time, dose: 12.5 mg/kg/injection, schedule: Q01DX009 (ip), vehicle: saline): 122 % of control
- T/C (endpoint: median survival time, dose: 16.0 mg/kg/injection, schedule: Q03HX008 (ip), vehicle: saline): 105 % of control
- T/C (endpoint: median survival time, dose: 16.0 mg/kg/injection, schedule: Q03HX016 (ip), vehicle: saline): 103 % of control
- T/C (endpoint: median survival time, dose: 26.0 mg/kg/injection, schedule: Q03HX024 (ip), vehicle: saline): 150 % of control
- T/C (endpoint: median survival time, dose: 32.0 mg/kg/injection, schedule: Q01DX009 (sc), vehicle: saline): 118 % of control
- T/C (endpoint: median survival time, dose: 32.0 mg/kg/injection, schedule: Q03HX008 (ip), vehicle: saline): 106 % of control
- T/C (endpoint: median survival time, dose: 32.0 mg/kg/injection, schedule: Q03HX016 (ip), vehicle: saline): 101 % of control
- T/C (endpoint: median survival time, dose: 64.0 mg/kg/injection, schedule: Q01DX009 (sc), vehicle: saline): 123 % of control
- T/C (endpoint: median survival time, dose: 64.0 mg/kg/injection, schedule: Q03HX008 (ip), vehicle: saline): 103 % of control
- T/C (endpoint: median survival time, dose: 64.0 mg/kg/injection, schedule: Q03HX016 (ip), vehicle: saline): 103 % of control
- T/C (endpoint: median survival time, dose: 64.0 mg/kg/injection, schedule: Q04DX003 (ip), vehicle: saline): 103 % of control
- T/C (endpoint: median survival time, dose: 74.0 mg/kg/injection, schedule: Q01DX009 (oral), vehicle: saline): 116 % of control
- T/C (endpoint: median survival time, dose: 110.0 mg/kg/injection, schedule: Q01DX009 (oral), vehicle: saline): 100 % of control
- T/C (endpoint: median survival time, dose: 128.0 mg/kg/injection, schedule: Q01DX001 (ip), vehicle: saline): 98 % of control
- T/C (endpoint: median survival time, dose: 128.0 mg/kg/injection, schedule: Q01DX009 (ip), vehicle: saline): 156 % of control
- T/C (endpoint: median survival time, dose: 128.0 mg/kg/injection, schedule: Q01DX009 (oral), vehicle: saline): 111 % of control
- T/C (endpoint: median survival time, dose: 128.0 mg/kg/injection, schedule: Q03HX008 (ip), vehicle: saline): 108 % of control
- T/C (endpoint: median survival time, dose: 128.0 mg/kg/injection, schedule: Q03HX016 (ip), vehicle: saline): 110 % of control
- T/C (endpoint: median survival time, dose: 128.0 mg/kg/injection, schedule: Q04DX003 (ip), vehicle: saline): 104 % of control
- T/C (endpoint: median survival time, dose: 128.0 mg/kg/injection, schedule: Q04DX003 (oral), vehicle: saline): 104 % of control and 110 % of control
- T/C (endpoint: median survival time, dose: 128.0 mg/kg/injection, schedule: Q04DX003 (sc), vehicle: saline): 112 % of control
- T/C (endpoint: median survival time, dose: 128.0 mg/kg/injection, schedule: Q08DX002 (ip), vehicle: saline): 94 % of control
- T/C (endpoint: median survival time, dose: 164.0 mg/kg/injection, schedule: Q01DX009 (oral), vehicle: saline): 111 % of control
- T/C (endpoint: median survival time, dose: 170.0 mg/kg/injection, schedule: Q04DX003 (ip), vehicle: saline): 111 % of control
- T/C (endpoint: median survival time, dose: 248.0 mg/kg/injection, schedule: Q01DX009 (oral), vehicle: saline): 100 % of control
- T/C (endpoint: median survival time, dose: 256.0 mg/kg/injection, schedule: Q01DX001 (ip), vehicle: saline): 105 % of control
- T/C (endpoint: median survival time, dose: 256.0 mg/kg/injection, schedule: Q01DX009 (ip), vehicle: saline): 180 % of control
- T/C (endpoint: median survival time, dose: 256.0 mg/kg/injection, schedule: Q01DX009 (oral), vehicle: saline): 107 % of control and 110 % of control
- T/C (endpoint: median survival time, dose: 256.0 mg/kg/injection, schedule: Q03HX008 (ip), vehicle: saline): 116 % of control
- T/C (endpoint: median survival time, dose: 256.0 mg/kg/injection, schedule: Q03HX016 (ip), vehicle: saline): 122 % of control
- T/C (endpoint: median survival time, dose: 256.0 mg/kg/injection, schedule: Q04DX003 (ip), vehicle: saline): 112 % of control
- T/C (endpoint: median survival time, dose: 256.0 mg/kg/injection, schedule: Q04DX003 (oral), vehicle: saline): 117 % of control and 123 % of control
- T/C (endpoint: median survival time, dose: 256.0 mg/kg/injection, schedule: Q04DX003 (sc), vehicle: saline): 120 % of control
- T/C (endpoint: median survival time, dose: 256.0 mg/kg/injection, schedule: Q08DX002 (ip), vehicle: saline): 97 % of control
- T/C (endpoint: median survival time, dose: 260.0 mg/kg/injection, schedule: Q04DX003 (ip), vehicle: saline): 111 % of control
- T/C (endpoint: median survival time, dose: 400.0 mg/kg/injection, schedule: Q01DX009 (ip), vehicle: saline): 155 % of control
- T/C (endpoint: median survival time, dose: 512.0 mg/kg/injection, schedule: Q01DX001 (ip), vehicle: saline): 100 % of control
- T/C (endpoint: median survival time, dose: 512.0 mg/kg/injection, schedule: Q01DX009 (oral), vehicle: saline): 97 % of control and 100 % of control
- T/C (endpoint: median survival time, dose: 512.0 mg/kg/injection, schedule: Q04DX003 (ip), vehicle: saline): 122 % of control
- T/C (endpoint: median survival time, dose: 512.0 mg/kg/injection, schedule: Q04DX003 (oral), vehicle: saline): 105 % of control
- T/C (endpoint: median survival time, dose: 512.0 mg/kg/injection, schedule: Q04DX003 (sc), vehicle: saline): 119 % of control
- T/C (endpoint: median survival time, dose: 512.0 mg/kg/injection, schedule: Q08DX002 (ip), vehicle: saline): 95 % of control
- T/C (endpoint: median survival time, dose: 580.0 mg/kg/injection, schedule: Q04DX003 (ip), vehicle: saline): 111 % of control
- T/C (endpoint: median survival time, dose: 600.0 mg/kg/injection, schedule: Q01DX009 (ip), vehicle: saline): 110 % of control
- T/C (endpoint: median survival time, dose: 1024.0 mg/kg/injection, schedule: Q01DX001 (ip), vehicle: saline): 101 % of control
- T/C (endpoint: median survival time, dose: 1024.0 mg/kg/injection, schedule: Q01DX009 (oral), vehicle: saline): 95 % of control
- T/C (endpoint: median survival time, dose: 1024.0 mg/kg/injection, schedule: Q08DX002 (ip), vehicle: saline): 106 % of control
- T/C (endpoint: median survival time, dose: 2048.0 mg/kg/injection, schedule: Q01DX001 (ip), vehicle: saline): 111 % of control
- T/C (endpoint: median survival time, dose: 2048.0 mg/kg/injection, schedule: Q08DX002 (ip), vehicle: saline): 119 % of control

SMILES: O=[N+]([O-])c1ccc2cnn(CCO)c2c1
- T/C [1]: 101 % of control
- T/C [2]: 113 % of control
- T/C (endpoint: mean survival time, dose: 400.0 mg/kg/injection, schedule: Q01DX001 (ip), vehicle: carboxymethylcellulose (CMC)): 101 % of control

SMILES: CC(NC(=O)Nc1ccccc1Cl)c1ccccc1 (stereo not given)
- T/C [3]: 105 % of control
- T/C [4]: 105 % of control
- T/C [5]: 102 % of control

SMILES: C[SiH]1c2ccccc2CCc2ccccc21
- T/C [3]: 102 % of control
- T/C (endpoint: mean survival time, dose: 100.0 mg/kg/injection, schedule: Q04DX003 (ip), vehicle: Klucel (hydroxypropylcellulose) (HPC)): 104 % of control
- T/C [4]: 104 % of control
- T/C (endpoint: mean survival time, dose: 200.0 mg/kg/injection, schedule: Q04DX003 (ip), vehicle: Klucel (hydroxypropylcellulose) (HPC)): 105 % of control
- T/C [5]: 106 % of control
- T/C (endpoint: mean survival time, dose: 400.0 mg/kg/injection, schedule: Q04DX003 (ip), vehicle: Klucel (hydroxypropylcellulose) (HPC)): 107 % of control

SMILES: O=C([O][Sb]([O]C(=O)C(F)(F)F)([c]1ccccc1)([c]1ccccc1)[c]1ccccc1)C(F)(F)F
- T/C (endpoint: mean survival time, dose: 100.0 mg/kg/injection, schedule: Q01DX001 (ip), vehicle: saline with Tween-80): 99 % of control
- T/C (endpoint: mean survival time, dose: 200.0 mg/kg/injection, schedule: Q01DX001 (ip), vehicle: saline with Tween-80): 92 % of control

SMILES: COc1ccc(OC)c2c(=O)cc[nH]c12
- T/C [1]: 103 % of control
- T/C [2]: 94 % of control

SMILES: CCCCCCCNC(=O)OCC
- T/C (endpoint: mean survival time, dose: 55.0 mg/kg/injection, schedule: Q01DX Z (ip), vehicle: methylcellulose (MC)): 93 % of control
- T/C (endpoint: mean survival time, dose: 83.0 mg/kg/injection, schedule: Q01DX Z (ip), vehicle: methylcellulose (MC)): 93 % of control
- T/C (endpoint: mean survival time, dose: 125.0 mg/kg/injection, schedule: Q01DX Z (ip), vehicle: methylcellulose (MC)): 104 % of control
